Laboratory results reported in patent US20140030350A1, “Drug Delivery Systems” (BIOCOMPATIBLES UK LIMITED, priority 2011, published 2014).

Experiment: UV/Vis scan of DTT effect on doxorubicin over time
Format: physicochemical
Settings: high concentration of DTT, 17 hours
Protocol: Diothiothreitol (DTT) is a well known mild disulfide reducing agent and is used to maintain disulfide groups in their reduced thiol state. […] A high concentration of DTT was added to doxorubicin and was scanned at 1 hour time points using a UV/Vis spectrophotometer.

Change to the absorbance of doxorubicin on exposure to DTT: very little change
SMILES: COc1cccc2c1C(=O)c1c(O)c3c(c(O)c1C2=O)C[C@@](O)(C(=O)CO)C[C@@H]3O[C@H]1C[C@H](N)[C@H](O)[C@H](C)O1 [doxorubicin]
